Seven molecules from PubChem BioAssay (NCI) can be followed below.

Test systems include LXFL 529 NSCLC; IGROV1 ovarian; NCI-H23 lung; NCI-H460 lung; SW-620 colon; NCI-H522 lung; DLD-1 colon; UACC-257 melanoma; SF-268 CNS; DMS 273 small cell lung; KM20L2 colon.
Holding throughout (experiment): DTP human tumour cell line panel, 48 h

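Exposure lasted 48 hours, with cells grown in 96-well plates and compounds tested at five concentrations. TGI: concentration producing complete growth inhibition.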 Bounds are passed on as bounds.

With `Cc1ccc(NC(=O)CCC(=O)C(C#N)c2ccccc2)cc1C` (configuration not stated), the TGI in the test with LXFL 529 NSCLC, with IGROV1 ovarian, in the test with NCI-H23 lung, in the test with NCI-H460 lung, with SW-620 colon and with NCI-H522 lung was more than 100 µM throughout. In addition, the concentration for total growth inhibition (TGI) in the test on DLD-1 colon, in the test on UACC-257 melanoma, in the test with SF-268 CNS, in the test on DMS 273 small cell lung and in the test on KM20L2 colon was more than 100 µM each time.
With `Nc1nc(N)c(-c2ccccc2)c(CCC(=O)Nc2ccc(Cl)cc2)n1`, the TGI with LXFL 529 NSCLC, in the test on IGROV1 ovarian, in the test on NCI-H23 lung, with NCI-H460 lung, with SW-620 colon and in the test with NCI-H522 lung was more than 100 µM throughout. The TGI with DLD-1 colon, in the test with UACC-257 melanoma, in the test on SF-268 CNS, in the test with DMS 273 small cell lung and with KM20L2 colon was more than 100 µM throughout.
Consider `CCOC(=O)/N=c1/nc(N(C)C)ss1`, for which the total growth inhibition concentration (TGI) in the test on LXFL 529 NSCLC, in the test on IGROV1 ovarian, in the test on NCI-H23 lung, in the test on NCI-H460 lung, with SW-620 colon and in the test on NCI-H522 lung was more than 100 µM in each case. Besides, the TGI in the test on DLD-1 colon, with UACC-257 melanoma, with SF-268 CNS, in the test with DMS 273 small cell lung and in the test with KM20L2 colon was more than 100 µM throughout.
Consider `NS(=O)(=O)c1ccc(NC(=O)COC(=O)c2cccc3c(=O)c4ccccc4[nH]c23)cc1`, for which the TGI (as a rule, the concentration at which net growth stops) in the test with LXFL 529 NSCLC was 20.9 µM; in the test on IGROV1 ovarian, 61.5 µM; in the test with NCI-H23 lung it was 60.5 µM; in the test with NCI-H460 lung, more than 100 µM; with SW-620 colon, more than 100 µM; with NCI-H522 lung it was 43.5 µM. Also, the TGI was more than 100 µM in the test with DLD-1 colon; more than 100 µM in the test with UACC-257 melanoma; 36.9 µM in the test on SF-268 CNS; more than 95.1 µM in the test with DMS 273 small cell lung; more than 100 µM in the test with KM20L2 colon.
Consider `Cc1ccc(S(=O)OC23CC4CC(CC(C4)C2)C3)cc1` (configuration not stated), for which the total growth inhibition concentration (TGI) was more than 100 µM in the test on LXFL 529 NSCLC; 85.7 µM in the test on IGROV1 ovarian; more than 100 µM in the test with NCI-H23 lung; more than 100 µM in the test on NCI-H460 lung; more than 100 µM in the test on SW-620 colon; more than 100 µM in the test on NCI-H522 lung. Besides, the TGI in the test on DLD-1 colon, in the test on UACC-257 melanoma, in the test on SF-268 CNS, in the test on DMS 273 small cell lung and in the test on KM20L2 colon was more than 100 µM each time.
As for `C#CCN(C)C(=O)N(CC#C)N=O`, the TGI with LXFL 529 NSCLC, with IGROV1 ovarian, in the test on NCI-H23 lung, with NCI-H460 lung, in the test with SW-620 colon and with NCI-H522 lung was more than 100 µM in each case. In addition, the concentration for total growth inhibition (TGI) with DLD-1 colon, with UACC-257 melanoma, with SF-268 CNS, in the test on DMS 273 small cell lung and with KM20L2 colon was more than 100 µM throughout.
Regarding `CN(C)CC1CCCC/C1=N/OC(=O)c1ccc(Cl)c(Cl)c1` (configuration not stated), the TGI in the test on LXFL 529 NSCLC, in the test on IGROV1 ovarian, in the test on NCI-H23 lung, in the test on NCI-H460 lung, in the test with SW-620 colon and in the test on NCI-H522 lung was more than 100 µM in each case. Besides, the TGI in the test with DLD-1 colon, with UACC-257 melanoma, with SF-268 CNS, with DMS 273 small cell lung and with KM20L2 colon was more than 100 µM in each case.
